The subject of this assay is ex vivo porcine corneas. Put plainly: Ex vivo tensile testing of cross-linked porcine corneas (elastic modulus). Also on record: species or system domestic pig (Sus domesticus). On the procedure: Eyes of the domestic pig (Sus domesticus) are collected from a local abattoir 0-4 hours post-mortem. Eyes are cleaned of excess tissue and fat and washed in PBS containing 200 U penicillin and 0.2 mg/ml streptomycin and 5 μg/ml amphotericin B (Merch Life Science, Dorset, UK). The eyes are stored in a petri dish containing the PBS antibiotic/antimycotic solution, corneas facing up, at 4° C. overnight.
The porcine eyes are removed from 4° C. and allowed to warm to room temperature. One-to-two drops of Minims Proxymetacaine hydrochloride 0.5% w/v (Bosch & Lomb, Surrey, UK) were applied to the cornea for 15 minutes, with additional drops added ever 5 minutes and then 2-3 minutes before treatment. After which a suction ring (E.Janach, Como, Italy) was attached to the cornea (FIG. 1) and 200 μl of BS^3 solution was added inside the ring. Eyes were incubated for 5, 15 or 30 mins at 37° C.; after which the BS^3 solution was aspirated and retained for pH measurement, and eyes were rinsed in PBS then stored, cornea facing down, in a 6-well plate with fresh PBS until tensile measurement.
Suction rings were applied to porcine corneas as in FIG. 1 and 18% ethanol solution was applied for 30 seconds before being adsorbed by a sponge spear. The cornea was then rinsed with PBS. After this the epithelium was removed with a corneal scraper and sponge spear. Once the epithelium was removed 0.1% riboflavin (Vibex Rapid™, Avedro Inc, MA, USA) was applied every 3 mins. Riboflavin was applied for a total of 30 mins for the Dresden protocol and 15 minutes for the Accelerated protocol.
After riboflavin treatment eyes were cross-linked by UVA light using and KXL System (Avedro Inc). UV light was applied at 3 mW/cm^2 for 30 mins for the Dresden protocol and 6 mW/cm^2 for 15 mins for the Accelerated protocol for a total applied energy of 5.4 J/cm^2 for both protocols.
The anterior section of the eye was removed by cutting around the globe 5-10 mm posteriorly from the limbus. The iris and ciliary process were removed from the posterior section of the tissue leaving only sclera and cornea. A strip of tissue was cut using a custom-made replaceable razor blade jig. Tissue thickness and width (determined as the distance between cutting edges) were measured with calipers.
The tissue strip was mounted in the grips of a Univert tensile tester (CellScale, Ontario, Canada) with a 50 N load cell. Tissue was stretched at a rate of 125 μm/s until failure. Data was captured at 1 Hz. Stress-strain curves were plotted and the elastic modulus was determined at a range of strains: 5-10%, 10-15%, 20-25% and 30-35%. Data were trimmed to 3% from the strain at ultimate tensile strain and 6 term polynomial equations we determined from each curve. […] These polynomials represent the stress-stain response of each cornea and were used to create an average stress-strain curve for the samples.
Ex vivo mechanical data were compared by One-way ANOVA and Tukey's post-hoc.

[1] abbreviates: Accelerated UV/Riboflavin protocol, strain range 5-10%.
Where [2] appears, read: Dresden UV/riboflavin protocol, strain range 5-10%.

Several values for one entry are separate records, joined by “and”; a condition that tells them apart may be missing. Identical values can stand only once.

As for `Cc1cc2nc3c(=O)[nH]c(=O)nc-3n(C[C@H](O)[C@H](O)[C@H](O)CO)c2cc1C` [Accelerated, riboflavin, reference compound], the “Percentage Change in Modulus Compared to Control” value was 79% under setting [1]; 46% (Accelerated UV/riboflavin protocol, strain range 10-15%); 28% (Accelerated UV/riboflavin protocol, strain range 20-25%); 16% (Accelerated UV/riboflavin protocol, strain range 30-35%). Moreover, the “difference in elastic modulus compared to control” value under setting [1] is “not significantly different”. Also, under setting [1], the elastic modulus is 5.45±2.97 MPa.
`Cc1cc2nc3c(=O)[nH]c(=O)nc-3n(C[C@H](O)[C@H](O)[C@H](O)CO)c2cc1C` [Dresden, riboflavin, reference compound]: the “Percentage Change in Modulus Compared to Control” value was 158% under setting [2]; 123% and 124% (Dresden UV/riboflavin protocol, strain range 10-15%); 62% (Dresden UV/riboflavin protocol, strain range 20-25%); 34% (Dresden UV/riboflavin protocol, strain range 30-35%). Also, the elastic modulus under setting [2] came to 7.99±4.58 MPa.

These data come from patent US20250295631A1, “NOVEL TREATMENT” (University of Liverpool, priority 2022, published 2025).
